Tests used:
[1] = The drug is tested on WLS-090 corresponding to human gut metagenome with ENA study accession number: PRJEB37062 and ENA sample accession number: ERS12561753 for biotransformation under anaerobic condition. The drug concentrations were measured over 9 timepoints collected between 0 and 24 hours of incubation by liquid-chromatography-coupled mass spectrometry (LC–MS); conditions: 2 µM
[2] = human gut metagenome, 24 h, 2 µM
[3] = human gut metagenome, 24 h, 2 µM; remark: listed apart in the source
[4] = human gut metagenome, 24 h, 2 µM; remark: listed apart in the source
[5] = human gut metagenome, 24 h, 2 µM; remark: listed apart in the source
[6] = The drug is tested on WLS-027 corresponding to human gut metagenome with ENA study accession number: PRJEB37062 and ENA sample accession number: ERS12561744 for biotransformation under anaerobic condition. The drug concentrations were measured over 9 timepoints collected between 0 and 24 hours of incubation by liquid-chromatography-coupled mass spectrometry (LC–MS); conditions: 2 µM
[7] = The drug is tested on Z-022 corresponding to mouse gut metagenome with ENA study accession number: PRJEB37062 and ENA sample accession number: ERS12561821 for biotransformation under anaerobic condition. The drug concentrations were measured over 9 timepoints collected between 0 and 24 hours of incubation by liquid-chromatography-coupled mass spectrometry (LC–MS); conditions: 2 µM
[8] = The drug is tested on WLS-350 corresponding to human gut metagenome with ENA study accession number: PRJEB37062 and ENA sample accession number: ERS12561789 for biotransformation under anaerobic condition. The drug concentrations were measured over 9 timepoints collected between 0 and 24 hours of incubation by liquid-chromatography-coupled mass spectrometry (LC–MS); conditions: 2 µM
[9] = human gut metagenome, 24 h, 2 µM; remark: listed apart in the source
[10] = The drug is tested on WLS-010 corresponding to human gut metagenome with ENA study accession number: PRJEB37062 and ENA sample accession number: ERS12561743 for biotransformation under anaerobic condition. The drug concentrations were measured over 9 timepoints collected between 0 and 24 hours of incubation by liquid-chromatography-coupled mass spectrometry (LC–MS); conditions: 2 µM
[11] = The drug is tested on Z-010 corresponding to metagenome with ENA study accession number: PRJEB37062 and ENA sample accession number: ERS12561810 for biotransformation under anaerobic condition. The drug concentrations were measured over 9 timepoints collected between 0 and 24 hours of incubation by liquid-chromatography-coupled mass spectrometry (LC–MS); conditions: 2 µM
[12] = human gut metagenome, 24 h, 2 µM; remark: listed apart in the source
[13] = The drug is tested on Z-018 corresponding to pig gut metagenome with ENA study accession number: PRJEB37062 and ENA sample accession number: ERS12561817 for biotransformation under anaerobic condition. The drug concentrations were measured over 9 timepoints collected between 0 and 24 hours of incubation by liquid-chromatography-coupled mass spectrometry (LC–MS); conditions: 2 µM
[14] = human gut metagenome, 24 h, 2 µM; remark: listed apart in the source
[15] = The drug is tested on WLS-038 corresponding to human gut metagenome with ENA study accession number: PRJEB37062 and ENA sample accession number: ERS12561745 for biotransformation under anaerobic condition. The drug concentrations were measured over 9 timepoints collected between 0 and 24 hours of incubation by liquid-chromatography-coupled mass spectrometry (LC–MS); conditions: 2 µM
[16] = human gut metagenome, 24 h, 2 µM; remark: listed apart in the source
[17] = human gut metagenome, 24 h, 2 µM; remark: listed apart in the source
[18] = The drug is tested on WLS-039 corresponding to human gut metagenome with ENA study accession number: PRJEB37062 and ENA sample accession number: ERS12561746 for biotransformation under anaerobic condition. The drug concentrations were measured over 9 timepoints collected between 0 and 24 hours of incubation by liquid-chromatography-coupled mass spectrometry (LC–MS); conditions: 2 µM
[19] = The drug is tested on Z-029 corresponding to rat gut metagenome with ENA study accession number: PRJEB37062 and ENA sample accession number: ERS12561828 for biotransformation under anaerobic condition. The drug concentrations were measured over 9 timepoints collected between 0 and 24 hours of incubation by liquid-chromatography-coupled mass spectrometry (LC–MS); conditions: 2 µM
[20] = The drug is tested on Z-014 corresponding to rat gut metagenome with ENA study accession number: PRJEB37062 and ENA sample accession number: ERS12561814 for biotransformation under anaerobic condition. The drug concentrations were measured over 9 timepoints collected between 0 and 24 hours of incubation by liquid-chromatography-coupled mass spectrometry (LC–MS); conditions: 2 µM

Measured: Bacterial Biotransformation
Note: call rule not given here.

O=P(O)(O)O.c1ccc(CN(CC2=NCCN2)c2ccccc2)cc1 [ANTAZOLINE PHOSPHATE]
Compound metabolized: [1] | [2] | [3] | [11]
Compound NOT metabolized: all other assays above

CN1CCC(=C2c3ccccc3CCc3cccnc32)CC1.O=C(O)/C=C\C(=O)O.O=C(O)/C=C\C(=O)O [AZATADINE MALEATE]
Compound metabolized: [3]
Compound NOT metabolized: all other assays above

CC(=O)OCC(=O)[C@@]1(O)[C@@H](C)C[C@H]2[C@@H]3CCC4=CC(=O)C=C[C@]4(C)[C@@]3(F)[C@@H](O)C[C@@]21C [BETAMETHASONE ACETATE]
Compound NOT metabolized: [12] | [13] | [20]
Compound metabolized: all other assays above

CC(C)NCC(O)COc1ccc(CCOCC2CC2)cc1 (stereo not given) [BETAXOLOL]
Compound metabolized: [1] | [2] | [3] | [9] | [12]
Compound NOT metabolized: all other assays above

CC(C)(Oc1ccc(CCNC(=O)c2ccc(Cl)cc2)cc1)C(=O)O [BEZAFIBRATE]
Compound NOT metabolized: [13] | [19] | [20]
Compound metabolized: all other assays above

— ChEMBL document CHEMBL5724914, “Linking interpersonal differences in gut microbiota composition and drug biotransformation activity” (2024)
